The molecules below were run against T1, human PAH with the R408W mutation (Homo sapiens, UniProt P00439, R408W) (assay: Cell Based Phenylalanine Flux Assay). Settings: A375 cells expressing human R408W PAH; 24 hrs compound incubation; 13C-Tyrosine by LC-MS; average where tested multiple times; read-out: AC50.
T1 construct: expressed in transfected cells
T1 sequence (P00439 1-452 R408W): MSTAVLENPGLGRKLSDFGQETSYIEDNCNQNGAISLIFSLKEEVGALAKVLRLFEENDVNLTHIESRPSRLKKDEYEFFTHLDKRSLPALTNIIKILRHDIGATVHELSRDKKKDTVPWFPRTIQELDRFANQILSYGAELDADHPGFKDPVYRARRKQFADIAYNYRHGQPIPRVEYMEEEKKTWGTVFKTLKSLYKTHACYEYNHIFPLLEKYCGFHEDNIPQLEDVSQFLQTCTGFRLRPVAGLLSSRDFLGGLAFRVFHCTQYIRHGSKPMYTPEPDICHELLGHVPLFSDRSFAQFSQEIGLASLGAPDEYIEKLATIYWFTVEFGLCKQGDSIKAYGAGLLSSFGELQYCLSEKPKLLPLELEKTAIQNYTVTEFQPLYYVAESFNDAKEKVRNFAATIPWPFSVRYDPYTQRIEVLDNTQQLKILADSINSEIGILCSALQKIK

Compound	AC50 [µM]
O=C(c1cnc(Cc2ccccc2)s1)N1CCc2[nH]cnc2[C@H]1c1nc2ccccc2s1 [Example 1227]	1 to 5
O=C(c1cnc(Cc2ccccc2)s1)N1CCc2[nH]cnc2[C@@H]1c1nc2ccccc2s1 [Example 1228, (R)-(4-(benzo[d]thiazol-2-yl)-6,7-dihydro-1H-imidazo[4,5-c]pyridin-5(4H)-yl)(2-benzylthiazol-5-yl)methanone]	1 to 5
Cn1cc(-c2ncc(C(=O)N3CCc4[nH]cnc4[C@H]3c3nc4ccccc4s3)s2)cn1 [Example 1229]	< 0.5
Cn1cc(-c2ncc(C(=O)N3CCc4[nH]cnc4[C@@H]3c3nc4ccccc4s3)s2)cn1 [Example 1230, (R)-(4-(benzo[d]thiazol-2-yl)-6,7-dihydro-1H-imidazo[4,5-c]pyridin-5(4H)-yl)(2-(1-methyl-1H-pyrazol-4-yl)thiazol-5-yl)methanone]	1 to 5
C=Cc1ccc2c(C(=O)N3CCc4[nH]cnc4[C@H]3c3nc4ccccc4s3)cnn2c1 [Example 1231]	0.5 to 1
C=Cc1ccc2c(C(=O)N3CCc4[nH]cnc4[C@@H]3c3nc4ccccc4s3)cnn2c1 [Example 1232, (R)-(4-(benzo[d]thiazol-2-yl)-6,7-dihydro-1H-imidazo[4,5-c]pyridin-5(4H)-yl)(6-vinylpyrazolo[1,5-a]pyridin-3-yl)methanone]	1 to 5
O=C(c1cncs1)N1CCc2[nH]cnc2[C@H]1c1nc2cccc(F)c2s1 [Example 1233, (S)-(4-(7-fluorobenzo[d]thiazol-2-yl)-6,7-dihydro-1H-imidazo[4,5-c]pyridin-5(4H)-yl)(thiazol-5-yl)methanone]	0.5 to 1
O=C(c1cncs1)N1CCc2[nH]cnc2[C@@H]1c1nc2cccc(F)c2s1 [Example 1234, (R)-(4-(7-fluorobenzo[d]thiazol-2-yl)-6,7-dihydro-1H-imidazo[4,5-c]pyridin-5(4H)-yl)(thiazol-5-yl)methanone]	1 to 5
O=C(CC1CC(F)C1)N1CCc2[nH]cnc2[C@H]1c1nc2ccccc2s1 (stereo partly shown) [Example 1245]	< 0.5
O=C(CC1CC(F)C1)N1CCc2[nH]cnc2[C@@H]1c1nc2ccccc2s1 (stereo partly drawn) [Example 1246, (R)-1-(4-(benzo[d]thiazol-2-yl)-6,7-dihydro-1H-imidazo[4,5-c]pyridin-5(4H)-yl)-2-(3-fluorocyclobutyl)ethanone]	1 to 5
O=C(c1cnco1)N1CCc2[nH]cnc2[C@H]1c1nc2cccc(F)c2s1 [Example 1247, (S)-(4-(7-fluorobenzo[d]thiazol-2-yl)-6,7-dihydro-1H-imidazo[4,5-c]pyridin-5(4H)-yl)(oxazol-5-yl)methanone]	1 to 5
O=C(c1cnco1)N1CCc2[nH]cnc2[C@@H]1c1nc2cccc(F)c2s1 [Example 1248, (R)-(4-(7-fluorobenzo[d]thiazol-2-yl)-6,7-dihydro-1H-imidazo[4,5-c]pyridin-5(4H)-yl)(oxazol-5-yl)methanone]	1 to 5
O=C(N1CCc2[nH]cnc2[C@H]1c1nc2ccccc2s1)C(F)(F)C1CC1 [Example 1253]	0.5 to 1
O=C(N1CCc2[nH]cnc2[C@@H]1c1nc2ccccc2s1)C(F)(F)C1CC1 [Example 1254, (R)-1-(4-(benzo[d]thiazol-2-yl)-6,7-dihydro-1H-imidazo[4,5-c]pyridin-5(4H)-yl)-2-cyclopropyl-2,2-difluoroethanone]	> 5
O=C(N1CCc2[nH]cnc2[C@H]1c1nc2ccccc2s1)C1(CF)CC1 [Example 1255]	0.5 to 1
O=C(N1CCc2[nH]cnc2[C@@H]1c1nc2ccccc2s1)C1(CF)CC1 [Example 1256, (R)-(4-(benzo[d]thiazol-2-yl)-6,7-dihydro-1H-imidazo[4,5-c]pyridin-5(4H)-yl)(1-(fluoromethyl)cyclopropyl)methanone]	> 5
O=C(CC1CC1)N1CCc2[nH]cnc2[C@H]1c1nc2cccc(F)c2s1 [Example 1257, (S)-2-cyclopropyl-1-(4-(7-fluorobenzo[d]thiazol-2-yl)-6,7-dihydro-1H-imidazo[4,5-c]pyridin-5(4H)-yl)ethanone]	< 0.5
O=C(CC1CC1)N1CCc2[nH]cnc2[C@@H]1c1nc2cccc(F)c2s1 [Example 1258, (R)-2-cyclopropyl-1-(4-(7-fluorobenzo[d]thiazol-2-yl)-6,7-dihydro-1H-imidazo[4,5-c]pyridin-5(4H)-yl)ethanone]	0.5 to 1
O=C(C1CC1)N1CCc2[nH]cnc2[C@H]1c1nc2cccc(F)c2s1 [Example 1259, (S)-cyclopropyl(4-(7-fluorobenzo[d]thiazol-2-yl)-6,7-dihydro-1H-imidazo[4,5-c]pyridin-5(4H)-yl)methanone]	0.5 to 1
O=C(C1CC1)N1CCc2[nH]cnc2[C@@H]1c1nc2cccc(F)c2s1 [Example 1260, (R)-cyclopropyl(4-(7-fluorobenzo[d]thiazol-2-yl)-6,7-dihydro-1H-imidazo[4,5-c]pyridin-5(4H)-yl)methanone]	> 5
O=C(c1ncc(Cl)s1)N1CCc2[nH]cnc2[C@H]1c1nc2cc(F)ccc2s1 [Example 1261]	1 to 5
O=C(c1ncc(Cl)s1)N1CCc2[nH]cnc2[C@@H]1c1nc2cc(F)ccc2s1 [Example 1262, (R)-(5-chlorothiazol-2-yl)(4-(5-fluorobenzo[d]thiazol-2-yl)-6,7-dihydro-1H-imidazo[4,5-c]pyridin-5(4H)-yl)methanone]	1 to 5
O=C(c1nc(Cl)cs1)N1CCc2[nH]cnc2[C@H]1c1nc2cccc(F)c2s1 [Example 1263]	1 to 5

The remaining lines, values ahead:

AC50 [µM]	Compound
0.5 to 1	O=C(c1cnn2cc(Br)ccc12)N1CCc2[nH]cnc2[C@H]1c1nc2c(F)cccc2s1 [Example 1235]
1 to 5	O=C(c1cnn2cc(Br)ccc12)N1CCc2[nH]cnc2[C@@H]1c1nc2c(F)cccc2s1 [Example 1236, (R)-(6-bromopyrazolo[1,5-a]pyridin-3-yl)(4-(4-fluorobenzo[d]thiazol-2-yl)-6,7-dihydro-1H-imidazo[4,5-c]pyridin-5(4H)-yl)methanone]
0.5 to 1	O=C(c1cnn2cc(Cl)ccc12)N1CCc2[nH]cnc2[C@H]1c1nc2c(F)cccc2s1 [Example 1237]
1 to 5	O=C(c1cnn2cc(Cl)ccc12)N1CCc2[nH]cnc2[C@@H]1c1nc2c(F)cccc2s1 [Example 1238, (R)-(6-chloropyrazolo[1,5-a]pyridin-3-yl)(4-(4-fluorobenzo[d]thiazol-2-yl)-6,7-dihydro-1H-imidazo[4,5-c]pyridin-5(4H)-yl)methanone]
< 0.5	O=C(c1cnn2c(Br)cccc12)N1CCc2[nH]cnc2[C@H]1c1nc2c(F)cccc2s1 [Example 1239]
1 to 5	O=C(c1cnn2c(Br)cccc12)N1CCc2[nH]cnc2[C@@H]1c1nc2c(F)cccc2s1 [Example 1240, (R)-(7-bromopyrazolo[1,5-a]pyridin-3-yl)(4-(4-fluorobenzo[d]thiazol-2-yl)-6,7-dihydro-1H-imidazo[4,5-c]pyridin-5(4H)-yl)methanone]
0.5 to 1	O=C(c1cnn2ccccc12)N1CCc2[nH]cnc2[C@H]1c1nc2c(Br)cccc2s1 [Example 1241, (S)-(4-(4-bromobenzo[d]thiazol-2-yl)-6,7-dihydro-1H-imidazo[4,5-c]pyridine-5(4H)-yl)(pyrazolo [1,5-a]pyridin-3-yl)methanone]
> 5	O=C(c1cnn2ccccc12)N1CCc2[nH]cnc2[C@@H]1c1nc2c(Br)cccc2s1 [Example 1242, (R)-(4-(4-bromobenzo[d]thiazol-2-yl)-6,7-dihydro-1H-imidazo[4,5-c]pyridine-5(4H)-yl)(pyrazolo [1,5-a]pyridin-3-yl) methanone]
1 to 5	CCc1ccc2c(C(=O)N3CCc4[nH]cnc4[C@H]3c3nc4ccccc4s3)cnn2c1 [Example 1243]
> 5	CCc1ccc2c(C(=O)N3CCc4[nH]cnc4[C@@H]3c3nc4ccccc4s3)cnn2c1 [Example 1244, (R)-(4-(benzo[d]thiazol-2-yl)-6,7-dihydro-1H-imidazo[4,5-c]pyridin-5(4H)-yl)(6-ethylpyrazolo[1,5-a]pyridin-3-yl)methanone]
0.5 to 1	N#Cc1ccn2ncc(C(=O)N3CCc4[nH]cnc4[C@H]3c3nc4c(F)cccc4s3)c2c1 [Example 1249, (S)-3-(4-(4-fluorobenzo[d]thiazol-2-yl)-4,5,6,7-tetrahydro-1H-imidazo[4,5-c]pyridine-5-carbonyl)pyrazolo[1,5-a]pyridine-5-carbonitrile]
1 to 5	N#Cc1ccn2ncc(C(=O)N3CCc4[nH]cnc4[C@@H]3c3nc4c(F)cccc4s3)c2c1 [Example 1250, (R)-3-(4-(4-fluorobenzo[d]thiazol-2-yl)-4,5,6,7-tetrahydro-1H-imidazo[4,5-c]pyridine-5-carbonyl)pyrazolo[1,5-a]pyridine-5-carbonitrile]
> 5	Cc1nnc(C(=O)N2CCc3[nH]cnc3[C@@H]2c2nc3c(F)cccc3s2)s1 [Example 1251, (R)-(4-(4-fluorobenzo[d]thiazol-2-yl)-6,7-dihydro-1H-imidazo[4,5-c]pyridin-5(4H)-yl)(5-methyl-1,3,4-thiadiazol-2-yl)methanone]
1 to 5	Cc1nnc(C(=O)N2CCc3[nH]cnc3[C@H]2c2nc3c(F)cccc3s2)s1 [Example 1252, (S)-(4-(4-fluorobenzo[d]thiazol-2-yl)-6,7-dihydro-1H-imidazo[4,5-c]pyridin-5(4H)-yl)(5-methyl-1,3,4-thiadiazol-2-yl)methanone]

Source: US20250171438A1 (Agios Pharmaceuticals, Inc., priority 2022, published 2025)
